Values of other authors, collected in US20160304881A1, “DDR1 ANTAGONIST OR AN INHIBITOR OF DDR1 GENE EXPRESSION FOR USE IN THE PREVENTION OR TREATMENT OF CRESCENTIC GLOMERULONEPHRITIS” (INSERM (INSTITUT NATIONAL DE LA SANTE ET DE LA RECHERCHE …, priority 2011, published 2016).

Biological target: DDR1 (Homo sapiens, UniProt Q08345)
Details: described in Day et al. (2008)

DDR1, sequence (Q08345 19-913): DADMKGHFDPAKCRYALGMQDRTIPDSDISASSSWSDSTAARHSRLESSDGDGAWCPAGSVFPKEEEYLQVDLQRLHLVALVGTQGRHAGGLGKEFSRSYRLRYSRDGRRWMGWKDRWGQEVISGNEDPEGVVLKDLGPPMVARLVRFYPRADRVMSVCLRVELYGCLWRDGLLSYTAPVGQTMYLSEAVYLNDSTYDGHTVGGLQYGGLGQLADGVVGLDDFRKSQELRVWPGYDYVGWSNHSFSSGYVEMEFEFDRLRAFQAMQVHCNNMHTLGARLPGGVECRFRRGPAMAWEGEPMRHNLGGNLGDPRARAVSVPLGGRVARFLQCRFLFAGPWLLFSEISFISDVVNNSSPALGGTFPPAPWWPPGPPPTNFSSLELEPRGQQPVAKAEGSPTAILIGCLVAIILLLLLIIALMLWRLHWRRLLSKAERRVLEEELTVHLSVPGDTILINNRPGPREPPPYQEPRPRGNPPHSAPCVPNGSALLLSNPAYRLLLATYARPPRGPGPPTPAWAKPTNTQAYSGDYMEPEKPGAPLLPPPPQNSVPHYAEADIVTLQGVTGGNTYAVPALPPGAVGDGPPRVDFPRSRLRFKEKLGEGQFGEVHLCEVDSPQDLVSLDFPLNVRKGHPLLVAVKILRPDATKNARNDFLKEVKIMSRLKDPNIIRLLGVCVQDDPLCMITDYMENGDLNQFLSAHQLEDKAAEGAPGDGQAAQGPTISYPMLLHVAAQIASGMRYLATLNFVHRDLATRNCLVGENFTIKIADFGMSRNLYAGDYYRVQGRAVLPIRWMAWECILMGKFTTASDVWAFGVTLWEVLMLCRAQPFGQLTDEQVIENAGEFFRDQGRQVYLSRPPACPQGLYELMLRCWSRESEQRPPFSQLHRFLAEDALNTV

Q: With Cc1cn(-c2cc(NC(=O)c3ccc(C)c(Nc4nccc(-c5cccnc5)n4)c3)cc(C(F)(F)F)c2)cn1 [nilotinib, 4-methyl-N-[3-(4-methyl-1H-imidazol-1-yl)-5-(trifluoromethyl)phenyl]-3-[(4-pyridin-3-ylpyrimidin-2-yl)amino]benzamide] as the molecule, how does the “collagen-induced DDR1 activation” value read?
A: Its value is “inhibitors of collagen-induced DDR1 activation”.

Q: Which “collagen-induced DDR1 activation” value does the source give for Cc1nc(Nc2ncc(C(=O)Nc3c(C)cccc3Cl)s2)cc(N2CCN(CCO)CC2)n1 [dasatinib, N-(2-chloro-6-methylphenyl)-2-[[6-[4-(2-hydroxyethyl)-1-piperazinyl]-2-methyl-4-pyrimidinyl]amino]-5-thiazole carboxamide] here?
A: The value was “inhibitors of collagen-induced DDR1 activation”.
